Results taken from patent publication US20180148418A1, “AMIDO-SUBSTITUTED CYCLOHEXANE DERIVATIVES” (Bayer Pharma Aktiengesellschaft, priority 2015, published 2018).

How the values were obtained:
[1] = system: HEK293 cells cotransfected with the FOP control vector; assay: HEK293 FOP assay (control reporter with non-functional TCF elements); type: cell-based; settings: Homo sapiens, 16 hours
Procedure, shortened: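 Stable HEK293 line carrying FOP control reporter (randomized non-functional TCF sites, with pcDNA3), Geneticin-selected, plated 24 h before assay. Stimulated with recombinant human Wnt-3a (2500-5 ng/ml) and compounds 50 μM–15 nM (3.16-fold steps) in CAFTY buffer pH 7.4 with 2 mM Ca2+, 0.01% BSA, run parallel to TOP line.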

TNKS2 = biological target: T1, TNKS2 (Homo sapiens, UniProt Q9H2K2); assay: TNKS2 Assay B (auto-parsylation, [3H]-NAD+ SPA); type: biochemical; settings: 6 nM TNKS2, auto-parsylation, over night at room temperature
T1 construct: purchased BPS Bioscience, San Diego, USA 80572 (TNKS2 Histone Ribosylation Assay Kit)
T1 sequence (Q9H2K2 1-1166): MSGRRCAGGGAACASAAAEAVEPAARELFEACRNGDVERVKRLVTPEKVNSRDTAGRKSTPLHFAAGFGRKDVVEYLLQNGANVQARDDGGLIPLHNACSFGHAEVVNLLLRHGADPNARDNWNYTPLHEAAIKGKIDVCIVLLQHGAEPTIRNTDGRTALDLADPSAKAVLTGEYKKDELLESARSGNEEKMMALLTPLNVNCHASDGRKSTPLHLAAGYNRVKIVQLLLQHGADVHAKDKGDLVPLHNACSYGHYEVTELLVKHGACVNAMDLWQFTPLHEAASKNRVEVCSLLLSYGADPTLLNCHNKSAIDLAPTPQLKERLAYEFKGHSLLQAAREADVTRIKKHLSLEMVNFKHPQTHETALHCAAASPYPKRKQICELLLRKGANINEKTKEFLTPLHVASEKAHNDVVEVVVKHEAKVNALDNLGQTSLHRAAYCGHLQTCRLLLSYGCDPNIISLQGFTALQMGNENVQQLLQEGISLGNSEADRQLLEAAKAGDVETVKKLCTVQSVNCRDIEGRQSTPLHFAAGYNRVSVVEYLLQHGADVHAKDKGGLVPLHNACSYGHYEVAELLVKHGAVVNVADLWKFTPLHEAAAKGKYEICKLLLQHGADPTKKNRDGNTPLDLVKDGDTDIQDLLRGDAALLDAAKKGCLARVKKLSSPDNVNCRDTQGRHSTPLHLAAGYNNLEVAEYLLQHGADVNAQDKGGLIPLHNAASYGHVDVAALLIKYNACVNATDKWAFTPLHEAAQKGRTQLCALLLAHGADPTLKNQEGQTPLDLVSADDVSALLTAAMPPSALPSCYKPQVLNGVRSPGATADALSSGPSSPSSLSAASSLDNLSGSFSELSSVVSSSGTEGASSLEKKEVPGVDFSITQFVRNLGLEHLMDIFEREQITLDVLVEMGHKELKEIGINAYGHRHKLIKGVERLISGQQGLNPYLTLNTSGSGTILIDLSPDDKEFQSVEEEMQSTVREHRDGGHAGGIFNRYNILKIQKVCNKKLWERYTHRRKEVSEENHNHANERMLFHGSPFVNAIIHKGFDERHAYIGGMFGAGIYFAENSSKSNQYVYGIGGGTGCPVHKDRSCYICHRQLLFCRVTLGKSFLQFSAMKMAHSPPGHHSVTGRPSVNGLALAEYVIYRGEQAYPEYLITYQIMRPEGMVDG

[2] = system: wildtype Wnt signaling cascade; assay: HEK293 TOP assay (Super TopFlash luciferase reporter, Wnt-3a stimulated); type: cell-based; settings: Homo sapiens, HEK293, 16 h, HEK293 TOP reporter cells, Wnt3a at EC50, 16 hours
Procedure, shortened: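 HEK293 cells stably carrying Super TopFlash (TOP) run in parallel with FOP cells, 10000/well plated 24 h ahead, stimulated with recombinant human Wnt-3a. Compounds tested 50 μM to 15 nM in 3.16-fold steps in CAFTY buffer pH 7.4 with 2 mM Ca^2+ and 0.01% BSA; luciferase read-out.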

SMILES	IC50 (TNKS2)	IC50 [2]	IC50 [1]
Cc1cc(C)n2ncc(C(=O)N[C@H]3CC[C@@]4(CCN(c5cc(F)c(F)cc5Cl)C4=O)CC3)c2n1 [Example 299, N-[(trans)-2-(2-chloro-4,5-difluorophenyl)-1-oxo-2-azaspiro[4.5]dec-8-yl]-5,7-dimethylpyrazolo[1,5-a]pyrimidine-3-carboxamide]	0.002 µM	0.0009 µM	≥ 50 µM
Cc1cc(N2CCC[C@]3(CC[C@@H](NC(=O)c4cnn5cccnc45)CC3)C2=O)c(Cl)cc1F [Example 300, N-[(trans)-2-(2-chloro-4-fluoro-5-methylphenyl)-1-oxo-2-azaspiro[5.5]undec-9-yl]pyrazolo[1,5-a]pyrimidine-3-carboxamide]	0.045 µM	0.018 µM	≥ 0.5 µM
Cc1cc(N2CCC[C@]3(CC[C@@H](NC(=O)c4cnc5cccnn45)CC3)C2=O)c(Cl)cc1F [Example 301, N-[(trans)-2-(2-chloro-4-fluoro-5-methylphenyl)-1-oxo-2-azaspiro[5.5]undec-9-yl]imidazo[1,2-b]pyridazine-3-carboxamide]	0.08 µM	0.028 µM	≥ 0.5 µM
Cc1cc(C)n2ncc(C(=O)N[C@H]3CC[C@@]4(CCCN(c5cc(C)c(F)cc5Cl)C4=O)CC3)c2n1 [Example 302, N-[(trans)-2-(2-chloro-4-fluoro-5-methylphenyl)-1-oxo-2-azaspiro[5.5]undec-9-yl]-5,7-dimethylpyrazolo[1,5-a]pyrimidine-3-carboxamide]	0.069 µM	0.042 µM	≥ 0.5 µM
COCCNC(=O)c1nc[nH]c1C(=O)N[C@H]1CC[C@@]2(CCN(c3cc(C)c(F)cc3Cl)C2=O)CC1 [Example 334, N^5-[(trans)-2-(2-chloro-4-fluoro-5-methylphenyl)-1-oxo-2-azaspiro[4.5]dec-8-yl]-N^4-(2-methoxyethyl)-1H-imidazole-4,5-dicarboxamide]	0.0049 µM	0.0095 µM	≥ 50 µM

Second part, led by results:

IC50 (TNKS2)	IC50 [2]	SMILES	IC50 [1]
0.056 µM	6.7 µM	COC(=O)c1cc(C)nc2c(C(=O)N[C@H]3CC[C@H](C(=O)Nc4c(F)cc(F)cc4Cl)CC3)cnn12 [Example 351, methyl 3-({trans-4-[(2-chloro-4,6-difluorophenyl)carbamoyl]cyclohexyl}carbamoyl)-5-methylpyrazolo[1,5-a]pyrimidine-7-carboxylate]	≥ 50 µM
0.12 µM	7.5 µM	COC(=O)c1cc(C)nc2c(C(=O)N[C@H]3CC[C@H](C(=O)Nc4ccc(F)cc4Cl)CC3)cnn12 [Example 352, methyl 3-({trans-4-[(2-chloro-4-fluorophenyl)carbamoyl]cyclohexyl}carbamoyl)-5-methylpyrazolo[1,5-a]pyrimidine-7-carboxylate]	≥ 50 µM
> 10 µM	4 µM	Cc1c(C(C)(C)O)cnc2c(C(=O)N[C@H]3CC[C@H](C(=O)Nc4ccc(F)cc4Cl)CC3)cnn12 [Example 359, N-{trans-4-[(2-chloro-4-fluorophenyl)carbamoyl]cyclohexyl}-6-(2-hydroxypropan-2-yl)-7-methylpyrazolo[1,5-a]pyrimidine-3-carboxamide]	≥ 50 µM
1.7 µM	10 µM	O=C(N[C@H]1CC[C@H](C(=O)Nc2ccc(F)cc2Cl)CC1)c1cnc2ccc(O)nn12 [Example 360, N-{trans-4-[(2-chloro-4-fluorophenyl)carbamoyl]cyclohexyl}-6-hydroxyimidazo[1,2-b]pyridazine-3-carboxamide]	≥ 50 µM
0.019 µM	0.021 µM	Cc1nc2c(C(=O)N[C@H]3CC[C@H](C(=O)Nc4c(F)cc(F)cc4Cl)CC3)cnn2c2c1CCC2 [Example 363, N-{trans-4-[(2-chloro-4,6-difluorophenyl)carbamoyl]cyclohexyl}-5-methyl-7,8-dihydro-6H-cyclopenta[e]pyrazolo[1,5-a]pyrimidine-3-carboxamide]	≥ 50 µM
